“Also recorded” adds a separate entry of the source.
Legend:
[1] = system: Cyp24a1-deficient mice; experiment: Rescue of impaired fracture healing in Cyp24a1-deficient mice (tibial osteotomy); assay type: in vivo, mouse; conditions: for effect on fracture repair: daily subcutaneous injection, 24,25-(OH)2D3 6.7 μg/kg, 1α,25-(OH)2D3 67 ng/kg
Procedure: FIG. 2: rescue of impaired fracture repair in Cyp24a1-deficient mice by treatment with 24,25-(OH)2D3. Osteotomy was performed and animals from each genotype were treated daily with vehicle, 1,25-(OH)2D3 (67 ng/kg) or 24,25-(OH)2D3 (6.7 ug/kg). The fracture callus was harvested at 14 days post-osteotomy and bone volume (BV) and tissue volume (TV) were measured by histomorphometry using the BioQuant Osteo image analysis software. WT, wild-type; cyp24a1−/−, mutant mice deficient for the Cyp24a1 gene.
A Cyp24a1-deficient mouse strain was used to determine the role of 24-hydroxylated vitamin D compounds during mammalian fracture repair. In wild-type mice, there is a significant increase in local expression of Cyp24a1 mRNA in the tibiae subjected to an osteotomy as compared to the unfractured contralateral tibiae. To identify the role of this change in gene expression on callus formation, four-month-old wild-type and Cyp24a1-deficient mice were subjected to a stabilized, transverse mid-diaphysial fracture of the tibia. Bones were collected at days 14 and 21 post-fracture and analyzed for histology and gene expression.
Control groups were injected with the vehicle (propylene glycol). […] Daily injection with 24,25-(OH)2D3 normalized the histological appearance of the callus and the measured static histomorphometric index (BV/TV, FIG. 2).

[2] = system: chickens; conditions: chick fracture, treatment with metabolite alone; cited from earlier work
[3] = system: ATF response element; experiment: ATF response element luciferase reporter (Cignal AARE) in receptor-transfected COS7 cells; assay type: cell-based; conditions: saturating dose
Procedure: FIG. 5. Activation of the ATF response element following binding of 24,25(OH)2D to the 24-hydroxylated vitamin D compound receptor. COS7 cells stably transfected with an empty expression vector (vector) or with an expression vector for the 24-hydroxyvitamin D compound receptor (24,25(OH)2D rep) were transiently transfected with a reporter construct in which the luciferase reporter is under the control of an ATF response element. Transfected cells were then treated with ethanol (vehicle) or a saturating dose of 24,25(OH)2D. A renilla luciferase constitutive expression vector was co-transfected to assess efficiency of […]. Results (mean±SEM) are expressed as fold-induction over treatment with vehicle.
In certain embodiments of the present invention where the Cignal Finder reporter system is employed, COS-7 cells stably transfected with the 24-hydroxylated vitamin D compound receptor are seeded in 24-well tissue culture plates (Nunc, Roskilde, Denmark) at a density of 20,000 cells per well in growth medium (high-glucose DMEM with HEPES, 10% FBS, and 400 μg/ml of Geneticin). […] The activity of firefly and renilla luciferases are measured sequentially on a Sirius Luminometer (Berthold Detection Systems GmbH, Pforzheim, Germany). The specific luciferase activity is expressed as the ratio of firefly/renilla luciferase activity. […]

[4] = molecular target: T1, 24-hydroxylated vitamin D compound receptor (FAM57B) (Mus musculus, UniProt Q7TNV1); experiment: [3H]-24,25(OH)2D3 binding assay on membrane fractions of transfected COS-7 cells; conditions: for displacement of [3H]-24,25(OH)2D3 specific binding by excess cold compound: membrane fractions, excess of nonradioactive competitor; for specific binding of radioligand to receptor (saturation): membrane fractions of COS-7 cells expressing FAM57B
T1 construct: The full-length 24-hydroxylated vitamin D compound receptor was subcloned into the pcDNA3.1 expression vector; expressed in transfected cells; host or cells: COS-7 cells, stably transfected (pcDNA3.1)
T1 sequence (Q7TNV1 1-275 isoform Q7TNV1-3): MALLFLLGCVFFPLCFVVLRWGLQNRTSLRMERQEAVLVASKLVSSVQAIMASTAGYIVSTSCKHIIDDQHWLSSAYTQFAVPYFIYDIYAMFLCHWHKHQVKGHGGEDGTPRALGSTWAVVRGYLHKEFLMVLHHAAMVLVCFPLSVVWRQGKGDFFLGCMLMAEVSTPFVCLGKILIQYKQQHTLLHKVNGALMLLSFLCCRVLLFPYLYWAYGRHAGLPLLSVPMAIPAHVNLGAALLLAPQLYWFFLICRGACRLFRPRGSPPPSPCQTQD
Procedure: Membrane fractions of transfected COS-7 cells are prepared by differential centrifugation (66): cells are homogenized in buffer A (25 mM HEPES, 10 mM NaCl, 1 mM DTT at pH 7.4) and centrifuged at 20,000 g for 10 minutes. The resulting supernatant is then re-centrifuged at 20,000 g for 2×30 minutes. The resulting pellet is resuspended in buffer B (25 mM HEPES, 50 mM NaCl, 5 mM EDTA, 1 mM DTT at pH 7.4) and is used as a membrane fraction for binding assays.
Binding assays are performed on ice for 60 min in buffer B using [^3H]-24R,25(OH)2D3 (50 Ci/mmol; Amersham) in the presence or absence of a 200-fold excess of nonradioactive 24,25(OH)2D3. Bound and free ligand are separated by filtration on glass microfiber filters soaked in buffer B. The filters are rinsed with 10 ml of buffer B and are counted for radioactivity using a scintillation counter (36, 37, 66). Specific binding is then calculated as total binding minus non-specific binding measured in the presence of the excess of nonradioactive ligand.
Saturation binding analysis is performed using 100 μg of membrane fraction and 0.1 to 5 nM of [^3H]-24R,25(OH)2D3 and plotting specific binding as a function of ligand concentration (FIG. 4A). Saturation binding is repeated several times to minimize intra-assay variation and calculate binding affinity with accuracy. Affinity is determined using the saturation binding algorithm of the Prism software (GraphPad Software Inc., LaJolla, Calif.).
Binding specificity is further refined by performing competition binding assays on the membrane fractions with various nonradioactive vitamin D metabolites and other steroids (FIG. 4B). Binding is performed using 1 nM of [^3H]-24R,25(OH)2D3 and 100 μg of membrane fraction. Compete binding is done using 10-200 fold excess of 24,25(OH)2D3 (control displacement curve). Compete binding is also done using 10-200 fold excess of 25(OH)D3, 24S,25(OH)2D3 (the non-natural epimer of 24,25(OH)2D3), 1α(OH)D2, 1α,24(OH)D2, 1,24,25(OH)3D3, as well as dexamethasone, estradiol, and testosterone.

[5] = molecular target: T2, 24-hydroxylated vitamin D compound receptor (Mus musculus, UniProt Q7TNV1); experiment: Cellular dielectric spectroscopy (CellKey) in COS7 cells stably transfected with the receptor; assay type: cell-based; conditions: range of compound concentrations
T2 construct: The full-length 24-hydroxylated vitamin D compound receptor was subcloned into the pcDNA3.1 expression vector; expressed in transfected cells; host or cells: COS-7 cells, stably transfected (pcDNA3.1)
T2 sequence (Q7TNV1 1-275 isoform Q7TNV1-3): T1 sequence (Q7TNV1 1-275 isoform Q7TNV1-3)
Procedure: FIG. 4. Binding saturation and specificity of the 24-hydroxylated vitamin D compound receptor. A, B. The full-length 24-hydroxylated vitamin D compound receptor was subcloned into the pcDNA3.1 expression vector and expressed by stable transfection into COST cells. Membrane fractions were prepared by differential centrifugation and binding assays were performed using [^3H]-24,25(OH)2D3 in the presence or absence of an excess of nonradioactive 24,25(OH)2D3. Bound and free ligand were separated by filtration on glass microfiber filters. […] C, D. COS7 cells stably transfected with an expression vector for the 24-hydroxylated vitamin D compound receptor were plated in a cellular dielectric spectroscopy apparatus and changes in bioimpedance (dZiec), representative of binding, were measured over a range of compound concentrations. C. Response to vitamin D compounds. D. Response to steroids.
In certain embodiments of the present invention, cellular dielectric spectroscopy is used to ascertain binding specificity (124). The technology is based on applying electrical current to cells within a microplate format and measuring changes in impedance. […] The plate is installed onto the system to obtain a baseline reading. […]
Another method used to ascertain binding specificity is cellular dielectric spectroscopy (124). […] The plate is installed onto the system to obtain a baseline reading. […]

[6] = system: wild-type mice; conditions: cited from earlier work
[7] = system: rats; conditions: cited from earlier work
[8] = system: rat; conditions: rat studies; cited from earlier work

C=C1/C(=C\C=C2/CCC[C@]3(C)[C@@H]([C@H](C)CCCC(C)(C)O)CC[C@@H]23)C[C@@H](O)C[C@@H]1O [1α,25-(OH)2D3, reference compound]
effect on fracture repair [1]: no effect | healing (mechanical properties of healed bones) [2]: poor healing

C=C1CC[C@H](O)C/C1=C/C=C1\CCC[C@]2(C)[C@@H]([C@H](C)CC[C@@H](O)C(C)(C)O)CC[C@@H]12 [24,25-(OH)2D3]
luciferase reporter fold-induction over treatment with vehicle [3]: statistically significant | displacement of [3H]-24,25(OH)2D3 specific binding by excess cold compound [4]: can be displaced | type X collagen mRNA expression ([1]; all time points studied): rescued and normalized | histological appearance of the callus ([1]; daily injection 6.7 μg/kg): normalized | static histomorphometric index (BV/TV) ([1]; daily injection 6.7 μg/kg, callus at 14 days post-osteotomy): normalized | effect on fracture repair [1]: rescue; also recorded: corrected | effect on fracture repair ([1]; listed as 24,25(OH)2D3): rescued | changes in bioimpedance (dZiec), representative of binding [5]: specifically binds | changes in bioimpedance (dZiec), representative of binding ([5]; listed as 24R,25(OH)2D3): binding activity specific

CC(=O)[C@H]1CC[C@H]2[C@@H]3CCC4=CC(=O)CC[C@]4(C)[C@H]3CC[C@]12C [progesterone]
displacement of [3H]-24,25(OH)2D3 specific binding by excess cold compound [4]: not

CC(C)NCC(O)COc1cccc2ccccc12 (centres unmarked) [propranolol]
bone mass [6]: increase bone mass | bone defects [7]: repair bone defects

[^3H]-24R,25-(OH)2D3
specific binding of radioligand to receptor (saturation) [4]: specific and saturable | specific binding of radioligand to receptor (saturation) ([4]; listed as [^3H]-24,25(OH)2D3): saturable

B1: parathyroid hormone (protein, UniProt P01270 32-115, looked up)
Parathyroid hormone: SVSEIQLMHNLGKHLNSMERVEWLRKKLQDVHNFVALGAPLAPRDAGSQRPRKKEDNVLVESHEKSLGEADKADVNVLTKAKSQ
modifications: Parathyroid hormone
notes: parathyroid hormone administered in rat fracture studies
fracture repair [8]: improve fracture repair

Source: US8663934B2, “Cloned transmembrane receptor for 24-hydroxylated vitamin D compounds and uses thereof” (Shriners Hospital for Children, priority 2009, dated 2014)
